Measured values from patent US4632925A, “N-substituted diphenylpiperidines and antiobesity use thereof” (Hoffmann-La Roche Inc., priority 1985, dated 1986).
Counter-ions that a name gives are not always drawn.

Experiments:
[1] = test system: isolated perfused rat pancreas (insulin secretion); test: Insulin-secretory activity in the isolated perfused rat pancreas; parameters: species or system rat (female Charles River); settings: 16.7 mM glucose, index > 1 indicates suppression of insulin secretion
Procedure: DETERMINATION OF INSULIN-SECRETORY ACTIVITY IN THE ISOLATED PERFUSED RAT PANCREAS
Pancreases were obtained from young adult female Charles River rats weighing from 200-300 g. The animals were anesthesized with sodium pentobarbitol (45 mg/kg), injected intraperitoneally, and the pancreas with its intact vasculature was removed and connected to an extracorporeal perfusion apparatus.
The basic perfusion solution contained: 133 mM NaCl, 4.4 mM KCl, 2.5 mM MgSO4, 2.4 mM Ca gluconate, 1.5 mM KH2 PO4, 29.4 mM HaHCO3, 4% dextran and 0.2% bovine serum albumin and glucose as discussed below. The perfusion flow rate was kept constant at 4 ml/min. After a 15-20 minute equilibration period, the experimental protocol was begun. The pancreatic effluent was collected in either one or four-minute fractions.
The perfusion was run in the following sequence for each test compounds:
30 min 16.7 mM glucose--internal control
30 min 16.7 mM glucose and test compound
10 min 16.7 mM glucose--to check pancreas viability
The perfusion for the nontreated pancreas preparation was run as above, except that the test compound was omitted and replaced with perfusion solution.
Test compounds were dissolved in 90% ethanol or dimethylsulfoxide to a concentration of 25 mM and then diluted in the perfusion buffer to the desired concentration. The perfusion effluent was collected in one or four minute fractions--the samples were checked immediately, aliquoted for submission to radioimmunoassay and stored at -20° C. until the time of assay. The radioimmunoassay of insulin was carried out by a back-titration method using a pure rat insulin standard.
To assess the inhibitory activity of the test compounds, an inhibition index was calculated. The inhibition index is derived by comparing the insulin secretion response from treated versus nontreated pancreas preparations. For each preparation, a ratio of insulin secretion was calculated from the area under the insulin secretion curve of the first pulse of 16.7 mM glucose divided by the area under the curve of the second pulse of 16.7 mM glucose containing compound.

[2] = Glucose clearance: acute in vivo model; parameters: species or system Sprague-Dawley rats; settings: Rattus norvegicus, po, 0.5 h; 100 mg/kg intragastric, 30 min before i.p. glucose 1 g/kg; circulating glucose at 30 min; >100% indicates activity
Procedure: GLUCOSE CLEARANCE: ACUTE IN VIVO MODEL
The rationale for this test is that compounds which suppress insulin secretion should increase circulating glucose levels above those observed in controls following the administration of a high glucose load. Sprague-Dawley rats which range in weight from 150 to 180 grams after an overnight fast of 16 or 18 hours are given the test compound (100 mg/kg body weight) by intragastric administration 30 minutes before the intraperitoneal administration of glucose (1 g/kg body weight). Circulating glucose levels are determined immediately before glucose administration and 30, 60 and 90 minutes after glucose administration. Active compounds increase circulating glucose levels compared to controls. Since glucose levels peak at 30 minutes following glucose administration, the difference in circulating glucose levels between controls and treated rats at 30 minutes is used as an index of activity. The data are expressed as percent of control.

[3] = Antiobesity effects in obese Zucker rats; assay type: in vivo, genetically obese male Zucker rats; settings: 14 days
Procedure: ANTIOBESITY EFFECTS IN OBESE ZUCKER RATS
Genetically Obese Male Zucker rats were kept in temperature (22° C.) and light (12 hours light-dark cycle) regulated rooms. One week prior to the start of the experiment, the rats were transferred to individual wirebottomed cages and trained to eat a powdered chow diet (Ralston Purina Co., St. Louis, Mo.) ad libitum.
At the beginning of the experiment, the control group contributed to eat the chow diet and the experimental animals were given a chow diet containing drug. The amount of drug administered was calculated from the food intake per kg body weight for each experimental group. The age of the rats at the start of the drug treatment was two to three months. The period of treatment was 28 to 64 days. Food intake and body weights were recorded periodically (once each day to twice a week) throughout the duration of the study. Plasma samples for insulin and glucose determinations were taken from clipped tails. Carcass composition was determined at the end of the treatment period and, or comparative purposes, prior to the start of treatment.

[4] = Antiobesity effects in obese Zucker rats; assay type: in vivo, genetically obese male Zucker rats; settings: 46 mg/kg, 14 days; gain / days / dose (g/kg)

SMILES | Perfused Pancreas Inhibition Index ([1]; 50 μM) | response vs control in vivo at 100 mg/kg [2] | further results
C(=C(c1ccccc1)c1ccccc1)C1CCN(CCCCCCCc2cccnc2)CC1 [Example 24, 3-[7-[4-(2,2-Diphenylethenyl)-1-piperidinyl]heptyl]pyridine (1:1)-(E)-2-butenedioate salt hemihydrate] | 35 | 118% | –
Fc1ccc(C(CC2CCN(CCCCCCc3cccnc3)CC2)c2ccc(F)cc2)cc1 [Example 26, 3-[6-[4-[2,2-Bis(4-fluorophenyl)ethyl]-1-piperidinyl]hexyl]pyridine (1:1)-(E)-2-butenedioate salt] | 2.0 | 125% | –
C(=C(c1ccccc1)c1ccccc1)C1CCN(CCCCc2cncnc2)CC1 [Example 28, 5-[4-[4-(2,2-diphenylethenyl)-1-piperidinyl]butyl]pyrimidine (1:1)-(E)-2-butenedioate salt] | – | 147% | Perfused Pancreas Inhibition Index ([1]; 100 μM): 3.0
C(=C(c1ccccc1)c1ccccc1)C1CCN(CCCCCCc2cncnc2)CC1 [Example 29, 5-[6-[4-(2,2-Diphenylethenyl)-1-piperidinyl]hexyl]pyrimidine] | – | 104% | Perfused Pancreas Inhibition Index ([1]; 100 μM): 10.4
C(=C(c1ccccc1)c1ccccc1)C1CCN(CCCCCCCCCc2cccnc2)CC1 [Example 31, 3-[9-[4-(2,2-Diphenylethenyl)-1-piperidinyl]nonyl]pyridine] | 2.7 | 107% | Relative Body Weight Gain Index ([3]; 41 mg/kg, gain / days / dose (g/kg)): 61; Body Weight Gain (treated minus control) ([3]; 41 mg/kg, marked *): -35 g; Food Intake ([3]; 41 mg/kg, marked *): 82 % of control
C(=C(c1ccccc1)c1ccccc1)C1CCN(CCCCCCCCCCc2cccnc2)CC1 [Example 32, 3-[10-[4-(2,2-Diphenylethenyl)-1-piperidinyl]decyl]pyridine] | – | 100% | Relative Body Weight Gain Index [4]: 71; Food Intake ([3]; 46 mg/kg): 91 % of control; Body Weight Gain (treated minus control) ([3]; 46 mg/kg, marked *): -46 g
O=C(CCCCCn1ccnc1)N1CCC(C=C(c2ccccc2)c2ccccc2)CC1 [Example 33, 4-(2,2-Diphenylethenyl)-1-[1-oxo-6-(1H-imidazo-1-yl)hexyl]piperidine] | 2.5 | 120% | –
C(=C(c1ccccc1)c1ccccc1)C1CCN(CCCCCCn2ccnc2)CC1 [Example 34, 1-[6-[4-(2,2-Diphenylethenyl)-1-piperidinyl]hexyl]-1H-imidazole] | 1.1 | 101% | –
